Among the test systems are DU-145 prostate; HL-60(TB) leukemia; IGROV1 ovarian; MDA-MB-435; NCI-H23 lung; OVCAR-4 ovarian; PC-3 prostate; SF-268 CNS; SF-539 CNS; SK-MEL-2 melanoma.
Common to all, as to test: NCI-60 cell line screen, 48 h

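A five-concentration, 48-hour dose response in 96-well plates underlies each endpoint, interpolated linearly between surrounding concentrations. GI50: concentration for 50% inhibition of growth. TGI denotes the concentration required for complete inhibition of growth.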 Some results are limits rather than exact numbers.

`CC(=O)[O][Hg][CH2]C1(C)COC(C)([CH2][Hg][O]C(C)=O)CO1` (centres undefined): the GI50 is 10.4 µM in the assay on DU-145 prostate; 2.89 µM in the assay with HL-60(TB) leukemia; 2.35 µM in the assay with IGROV1 ovarian; 2.72 µM with MDA-MB-435; 13.2 µM with NCI-H23 lung; 26.4 µM in the assay on OVCAR-4 ovarian. The GI50 in the assay on PC-3 prostate was 16.6 µM; in the assay with SF-268 CNS, 4.73 µM; in the assay on SF-539 CNS, 17.7 µM; with SK-MEL-2 melanoma it was 4.31 µM. Further, the TGI in the assay with DU-145 prostate was found to be 23.1 µM; with HL-60(TB) leukemia, 5.94 µM; in the assay on IGROV1 ovarian, 7.12 µM; in the assay on MDA-MB-435, 7.18 µM; in the assay on NCI-H23 lung, 29.3 µM; in the assay on OVCAR-4 ovarian, 74.4 µM. Also, the TGI in the assay on PC-3 prostate stood at 37.5 µM; with SF-268 CNS, 9.17 µM; with SF-539 CNS, 32.6 µM; in the assay with SK-MEL-2 melanoma, 16.4 µM.
Consider `CCOc1ccc(NC(=O)c2cc3ccccc3cc2O)cc1`, for which the GI50 in the assay with DU-145 prostate is above 100 µM; with HL-60(TB) leukemia it was 22.3 µM; with IGROV1 ovarian, 74 µM; in the assay on MDA-MB-435 it was above 100 µM; in the assay with NCI-H23 lung it was 45.9 µM; with OVCAR-4 ovarian, above 100 µM. Besides, the GI50 is above 100 µM in the assay on PC-3 prostate, 64.8 µM in the assay on SF-268 CNS, 33.2 µM in the assay with SF-539 CNS and 76.7 µM in the assay with SK-MEL-2 melanoma. Also, the TGI in the assay with DU-145 prostate, with HL-60(TB) leukemia, in the assay on IGROV1 ovarian, in the assay on MDA-MB-435, in the assay on NCI-H23 lung and in the assay on OVCAR-4 ovarian was above 100 µM each time. Also, the TGI with PC-3 prostate, with SF-268 CNS, in the assay with SF-539 CNS and with SK-MEL-2 melanoma was above 100 µM each time.
As to `CNC12C3C4C1C1C2C3C41C(=O)N[C@H](C(=O)N(C)[C@H](C[C@@H](OC(C)=O)c1nc(C(=O)N[C@@H](Cc2ccccc2)C[C@H](C)C(=O)OC)cs1)C(C)C)C1CC1` (some centres undefined), the GI50 was 0.317 µM with DU-145 prostate; 0.0403 µM in the assay with HL-60(TB) leukemia; 0.172 µM with IGROV1 ovarian; 0.0467 µM in the assay on MDA-MB-435; 0.511 µM with NCI-H23 lung; 1.1 µM in the assay with OVCAR-4 ovarian. Besides, the GI50 in the assay with PC-3 prostate is 0.391 µM; with SF-268 CNS it was 0.354 µM; in the assay with SF-539 CNS, 0.322 µM; in the assay with SK-MEL-2 melanoma, 0.189 µM. In addition, the TGI with DU-145 prostate is above 3.68 µM; in the assay on HL-60(TB) leukemia, 0.135 µM; with IGROV1 ovarian, above 13.4 µM; in the assay on MDA-MB-435 it was 0.32 µM; in the assay with NCI-H23 lung it was above 15 µM; in the assay with OVCAR-4 ovarian, above 15 µM. In addition, the TGI was above 15 µM in the assay on PC-3 prostate, above 10.6 µM with SF-268 CNS and 0.93 µM with SF-539 CNS.
For `C[C@@H]1CC[C@@H]2[C@@H]1[C@H](OC(=O)c1ccc3ccccc3c1)[C@]1(C3CCCCC3)C[C@@H](OC(=O)CO)[C@@]2(C)O1`, the GI50 with DU-145 prostate is 12.2 µM; in the assay on HL-60(TB) leukemia it was 9.23 µM; with IGROV1 ovarian, 15.6 µM; in the assay on MDA-MB-435, 14.1 µM; in the assay with NCI-H23 lung, 14.3 µM; with OVCAR-4 ovarian, 10.8 µM. The GI50 with PC-3 prostate is 4.2 µM; in the assay on SF-268 CNS it was 0.542 µM; with SF-539 CNS, 13.7 µM; in the assay with SK-MEL-2 melanoma, 15.3 µM. Besides, the TGI with DU-145 prostate is 25.9 µM; in the assay with HL-60(TB) leukemia, 30.6 µM; with IGROV1 ovarian it was 32.8 µM; with MDA-MB-435, 29.4 µM; in the assay on NCI-H23 lung it was 33.2 µM; in the assay with OVCAR-4 ovarian, 24.8 µM. The TGI with PC-3 prostate stood at 19.2 µM; in the assay on SF-268 CNS, 19.5 µM; in the assay with SF-539 CNS, 27.9 µM; in the assay on SK-MEL-2 melanoma, 30.8 µM.
As for `CN(N=O)C(=O)Nc1ccc(C(=O)O)cc1`, the TGI in the assay on DU-145 prostate, with HL-60(TB) leukemia, in the assay on IGROV1 ovarian, in the assay on MDA-MB-435, with NCI-H23 lung and with OVCAR-4 ovarian was above 100 µM in each case. Moreover, the TGI with PC-3 prostate, with SF-268 CNS, in the assay on SF-539 CNS and with SK-MEL-2 melanoma was above 100 µM in each case.
As for `O=C(O)c1cc2cc(O)ccc2[nH]1`, the GI50 in the assay with DU-145 prostate, in the assay with HL-60(TB) leukemia, in the assay on IGROV1 ovarian, in the assay on MDA-MB-435, in the assay with NCI-H23 lung and with OVCAR-4 ovarian was above 100 µM throughout. In addition, the GI50 in the assay with PC-3 prostate, with SF-268 CNS, with SF-539 CNS and in the assay on SK-MEL-2 melanoma was above 100 µM each time. Also, the TGI with DU-145 prostate, in the assay with HL-60(TB) leukemia, in the assay with IGROV1 ovarian, in the assay on MDA-MB-435, with NCI-H23 lung and in the assay with OVCAR-4 ovarian was above 100 µM throughout. The TGI with PC-3 prostate, in the assay on SF-268 CNS, in the assay on SF-539 CNS and in the assay on SK-MEL-2 melanoma was above 100 µM in each case.
As to `C=C1[C@@H](O)C[C@H]2C(C)(C)C[C@H](Cl)C[C@]2(C)[C@H]1C[C@H](O)[C@H]1CC(=O)NC1=O`, the GI50 in the assay on DU-145 prostate is 0.0166 µM; in the assay with HL-60(TB) leukemia, below 0.0107 µM; in the assay with IGROV1 ovarian, 0.0114 µM; in the assay on MDA-MB-435 it was 0.016 µM; with NCI-H23 lung, 0.0193 µM; with OVCAR-4 ovarian it was 0.0174 µM. Besides, the GI50 in the assay with PC-3 prostate was 0.0174 µM; with SF-268 CNS it was 0.0179 µM; with SF-539 CNS, below 0.0109 µM; with SK-MEL-2 melanoma it was below 0.0111 µM. The TGI in the assay on DU-145 prostate came to 0.165 µM; in the assay on HL-60(TB) leukemia, 0.0547 µM; with IGROV1 ovarian, 0.0853 µM; in the assay on MDA-MB-435 it was 0.312 µM; with NCI-H23 lung, 0.15 µM; with OVCAR-4 ovarian, 0.391 µM. For the same compound, the TGI came out at 0.264 µM with PC-3 prostate, 0.526 µM in the assay on SF-268 CNS, 0.0597 µM in the assay with SF-539 CNS and 0.0469 µM in the assay on SK-MEL-2 melanoma.
For `CCCCCCCC(=O)NS(=O)(=O)c1ccccc1`, the TGI in the assay on DU-145 prostate, in the assay on HL-60(TB) leukemia, with IGROV1 ovarian, with MDA-MB-435, in the assay with NCI-H23 lung and in the assay on OVCAR-4 ovarian was above 100 µM in each case. In addition, the TGI with PC-3 prostate, with SF-268 CNS, in the assay on SF-539 CNS and in the assay on SK-MEL-2 melanoma was above 100 µM throughout.

For the origin of these results see PubChem BioAssay (NCI).
